Data reported in publication PMC5224920, “Assessing the mechanism and therapeutic potential of modulators of the human Mediator complex-associated protein kinases” (eLife, 2016).

Tested on: 12 single or co-culture in vitro tissue models of primary cells
Assay: Culture/co-culture cell model panel, extracellular biomarkers (DiscoveRx); on CCL2/MCP-1: reference of the scale not given here; on CXCL8/IL-8: reference of the scale not given here; on CXCL9/MIG: reference of the scale not given here; on IL-1alpha: reference of the scale not given here; on M-CSF: reference of the scale not given here; on PBMC Cytotoxicity: reference of the scale not given here; on SRB: reference of the scale not given here; on sTNF-alpha: reference of the scale not given here
Type: cell-based, human
Details: for B cell Proliferation / PBMC Cytotoxicity / Secreted IgG / sIL-2 / sIL-6 / sIL-17A / sIL-17F / sTNF-alpha: BT
[1] = HDF3CGF stimulated fibroblasts, 1.00E0 nM
[2] = HDF3CGF stimulated fibroblasts, 1.00E1 nM
[3] = HDF3CGF stimulated fibroblasts, 1.00E2 nM
[4] = HDF3CGF stimulated fibroblasts, 1.00E3 nM

`Cn1ncc2cc(-c3cnc(N)c(Cl)c3N3CCC4(CCNC4=O)CC3)ccc21` [CMPD 3] showed an SRB (BENo, 1.00E3 nM) of 0.000914, a tPA (BENo, 1.00E3 nM) of -0.008 and a uPA (BENo, 1.00E3 nM) of 0.00377. It also gave a CCL26/Eotaxin-3 (BENo, 1.00E4 nM) of 0.042, a CD54/ICAM-1 (BENo, 1.00E4 nM) of 0.016 and a CD87/uPAR (BENo, 1.00E4 nM) of 0.038. For the same compound, the CXCL8/IL-8 (BENo, 1.00E4 nM) was 0.023, the CXCL9/MIG (BENo, 1.00E4 nM) was 0.059 and the CXCL10/IP-10 (BENo, 1.00E4 nM) was 0.042. The CXCL11/I-TAC (BENo, 1.00E4 nM) was 0.073, the EGFR (BENo, 1.00E4 nM) was 0.00756 and the HLA-DR (BENo, 1.00E4 nM) was 0.014. For the same compound, the IL-1alpha (BENo, 1.00E4 nM) was -0.053, the “Keratin 8/18” value (BENo, 1.00E4 nM) was 0.041 and the MMP-1 (BENo, 1.00E4 nM) was -0.026. The MMP-9 (BENo, 1.00E4 nM) was 0.010, the PAI-I (BENo, 1.00E4 nM) was -0.144 and the SRB (BENo, 1.00E4 nM) was -0.006. The tPA (BENo, 1.00E4 nM) was 0.015, the uPA (BENo, 1.00E4 nM) was -0.00171 and the CCL2/MCP-1 (BF4T, 1.00E0 nM) was -0.034. For the same compound, the CCL26/Eotaxin-3 (BF4T, 1.00E0 nM) was -0.012, the CD54/ICAM-1 (BF4T, 1.00E0 nM) was 0.007 and the CD90 (BF4T, 1.00E0 nM) was -0.021. It also gave a CD106/VCAM-1 (BF4T, 1.00E0 nM) of 0.067, a CXCL8/IL-8 (BF4T, 1.00E0 nM) of 0.013 and an IL-1alpha (BF4T, 1.00E0 nM) of 0.00747. For the same compound, the “Keratin 8/18” value (BF4T, 1.00E0 nM) was 0.00256, the MMP-1 (BF4T, 1.00E0 nM) was 0.013 and the MMP-3 (BF4T, 1.00E0 nM) was 0.056. For the same compound, the MMP-9 (BF4T, 1.00E0 nM) was 0.030, the PAI-I (BF4T, 1.00E0 nM) was 0.049 and the SRB (BF4T, 1.00E0 nM) was 0.00349. It also gave a tPA (BF4T, 1.00E0 nM) of 0.039, a uPA (BF4T, 1.00E0 nM) of 0.035 and a CCL2/MCP-1 (BF4T, 1.00E1 nM) of -0.011. It also gave a CCL26/Eotaxin-3 (BF4T, 1.00E1 nM) of -0.071, a CD54/ICAM-1 (BF4T, 1.00E1 nM) of -0.035 and a CD90 (BF4T, 1.00E1 nM) of 0.005. For the same compound, the CD106/VCAM-1 (BF4T, 1.00E1 nM) was -0.00425, the CXCL8/IL-8 (BF4T, 1.00E1 nM) was 0.046 and the IL-1alpha (BF4T, 1.00E1 nM) was 0.008. The “Keratin 8/18” value (BF4T, 1.00E1 nM) was 0.009, the MMP-1 (BF4T, 1.00E1 nM) was -0.00365 and the MMP-3 (BF4T, 1.00E1 nM) was 0.023. The MMP-9 (BF4T, 1.00E1 nM) was 0.007, the PAI-I (BF4T, 1.00E1 nM) was -0.00638 and the SRB (BF4T, 1.00E1 nM) was 0.000434. For the same compound, the tPA (BF4T, 1.00E1 nM) was 0.032, the uPA (BF4T, 1.00E1 nM) was -0.000167 and the CCL2/MCP-1 (BF4T, 1.00E2 nM) was -0.034. The CCL26/Eotaxin-3 (BF4T, 1.00E2 nM) was -0.085, the CD54/ICAM-1 (BF4T, 1.00E2 nM) was -0.034 and the CD90 (BF4T, 1.00E2 nM) was 0.00329. The CD106/VCAM-1 (BF4T, 1.00E2 nM) was -0.010, the CXCL8/IL-8 (BF4T, 1.00E2 nM) was 0.040 and the IL-1alpha (BF4T, 1.00E2 nM) was -0.00155. For the same compound, the “Keratin 8/18” value (BF4T, 1.00E2 nM) was 0.017, the MMP-1 (BF4T, 1.00E2 nM) was -0.009 and the MMP-3 (BF4T, 1.00E2 nM) was 0.032. It also gave an MMP-9 (BF4T, 1.00E2 nM) of -0.020, a PAI-I (BF4T, 1.00E2 nM) of -0.00143 and an SRB (BF4T, 1.00E2 nM) of 0.00276. For the same compound, the tPA (BF4T, 1.00E2 nM) was 0.041, the uPA (BF4T, 1.00E2 nM) was 0.017 and the CCL2/MCP-1 (BF4T, 1.00E3 nM) was -0.042. The CCL26/Eotaxin-3 (BF4T, 1.00E3 nM) was -0.098, the CD54/ICAM-1 (BF4T, 1.00E3 nM) was -0.035 and the CD90 (BF4T, 1.00E3 nM) was 0.00842. For the same compound, the CD106/VCAM-1 (BF4T, 1.00E3 nM) was -0.023, the CXCL8/IL-8 (BF4T, 1.00E3 nM) was 0.030 and the IL-1alpha (BF4T, 1.00E3 nM) was -0.009. For the same compound, the “Keratin 8/18” value (BF4T, 1.00E3 nM) was 0.034, the MMP-1 (BF4T, 1.00E3 nM) was 0.000873 and the MMP-3 (BF4T, 1.00E3 nM) was 0.030. The MMP-9 (BF4T, 1.00E3 nM) was -0.009, the PAI-I (BF4T, 1.00E3 nM) was 0.022 and the SRB (BF4T, 1.00E3 nM) was 0.00179. The tPA (BF4T, 1.00E3 nM) was 0.045, the uPA (BF4T, 1.00E3 nM) was 0.019 and the CCL2/MCP-1 (BF4T, 1.00E4 nM) was -0.010. It also gave a CCL26/Eotaxin-3 (BF4T, 1.00E4 nM) of -0.092, a CD54/ICAM-1 (BF4T, 1.00E4 nM) of -0.042 and a CD90 (BF4T, 1.00E4 nM) of 0.017. For the same compound, the CD106/VCAM-1 (BF4T, 1.00E4 nM) was 0.005, the CXCL8/IL-8 (BF4T, 1.00E4 nM) was 0.022 and the IL-1alpha (BF4T, 1.00E4 nM) was -0.002. The “Keratin 8/18” value (BF4T, 1.00E4 nM) was 0.038, the MMP-1 (BF4T, 1.00E4 nM) was 0.00226 and the MMP-3 (BF4T, 1.00E4 nM) was 0.073. It also gave an MMP-9 (BF4T, 1.00E4 nM) of 0.010, a PAI-I (BF4T, 1.00E4 nM) of 0.013 and an SRB (BF4T, 1.00E4 nM) of 0.000467. For the same compound, the tPA (BF4T, 1.00E4 nM) was 0.028, the uPA (BF4T, 1.00E4 nM) was -0.035 and the “B cell Proliferation” value (1.00E0 nM) was 0.00438. The “PBMC Cytotoxicity” value (1.00E0 nM) was 0.034, the “Secreted IgG” value (1.00E0 nM) was -0.074 and the sIL-2 (1.00E0 nM) was 0.110. For the same compound, the sIL-6 (1.00E0 nM) was 0.008, the sIL-17A (1.00E0 nM) was 0.110 and the sIL-17F (1.00E0 nM) was -0.037. For the same compound, the sTNF-alpha (1.00E0 nM) was 0.089, the “B cell Proliferation” value (1.00E1 nM) was -0.011 and the “PBMC Cytotoxicity” value (1.00E1 nM) was -0.016. The “Secreted IgG” value (1.00E1 nM) was 0.026, the sIL-2 (1.00E1 nM) was 0.017 and the sIL-6 (1.00E1 nM) was -0.016. The sIL-17A (1.00E1 nM) was 0.095, the sIL-17F (1.00E1 nM) was -0.399 and the sTNF-alpha (1.00E1 nM) was -0.021. For the same compound, the “B cell Proliferation” value (1.00E2 nM) was -0.056, the “PBMC Cytotoxicity” value (1.00E2 nM) was -0.027 and the “Secreted IgG” value (1.00E2 nM) was -0.165. The sIL-2 (1.00E2 nM) was 0.084, the sIL-6 (1.00E2 nM) was 0.046 and the sIL-17A (1.00E2 nM) was 0.184. The sIL-17F (1.00E2 nM) was -0.384, the sTNF-alpha (1.00E2 nM) was 0.022 and the “B cell Proliferation” value (1.00E3 nM) was -0.058. For the same compound, the “PBMC Cytotoxicity” value (1.00E3 nM) was -0.050, the “Secreted IgG” value (1.00E3 nM) was -0.370 and the sIL-2 (1.00E3 nM) was -0.083. The sIL-6 (1.00E3 nM) was -0.147, the sIL-17A (1.00E3 nM) was 0.263 and the sIL-17F (1.00E3 nM) was -0.522. For the same compound, the sTNF-alpha (1.00E3 nM) was -0.114, the “B cell Proliferation” value (1.00E4 nM) was -0.233 and the “PBMC Cytotoxicity” value (1.00E4 nM) was -0.092. For the same compound, the “Secreted IgG” value (1.00E4 nM) was -0.611, the sIL-2 (1.00E4 nM) was -0.213 and the sIL-6 (1.00E4 nM) was -0.493. For the same compound, the sIL-17A (1.00E4 nM) was 0.164, the sIL-17F (1.00E4 nM) was -0.874 and the sTNF-alpha (1.00E4 nM) was -0.249. For the same compound, the CCL2/MCP-1 [1] was -0.000698, the CD54/ICAM-1 [1] was 0.022 and the CD106/VCAM-1 [1] was -0.007. The CXCL8/IL-8 [1] was -0.00379, the CXCL9/MIG [1] was 0.00441 and the CXCL10/IP-10 [1] was 0.006. For the same compound, the CXCL11/I-TAC [1] was 0.016, the “Collagen I” value [1] was 0.078 and the “Collagen III” value [1] was 0.045. For the same compound, the EGFR [1] was 0.070, the M-CSF [1] was 0.015 and the MMP-1 [1] was 0.046. It also gave a PAI-I [1] of 0.072, a Proliferation_72hr [1] of -0.019 and an SRB [1] of -0.009. For the same compound, the TIMP-1 [1] was 0.031, the TIMP-2 [1] was 0.091 and the CCL2/MCP-1 [2] was -0.016. For the same compound, the CD54/ICAM-1 [2] was -0.00318, the CD106/VCAM-1 [2] was 0.013 and the CXCL8/IL-8 [2] was -0.026. The CXCL9/MIG [2] was -0.00175, the CXCL10/IP-10 [2] was 0.035 and the CXCL11/I-TAC [2] was -0.00346. For the same compound, the “Collagen I” value [2] was 0.095, the “Collagen III” value [2] was 0.043 and the EGFR [2] was -0.010. It also gave a M-CSF [2] of -0.053, an MMP-1 [2] of 0.052 and a PAI-I [2] of -0.000592. It also gave a Proliferation_72hr [2] of -0.139, an SRB [2] of -0.015 and a TIMP-1 [2] of -0.019. It also gave a TIMP-2 [2] of 0.138, a CCL2/MCP-1 [3] of -0.095 and a CD54/ICAM-1 [3] of -0.046. The CD106/VCAM-1 [3] was 0.00848, the CXCL8/IL-8 [3] was -0.030 and the CXCL9/MIG [3] was -0.053. The CXCL10/IP-10 [3] was 0.038, the CXCL11/I-TAC [3] was -0.019 and the “Collagen I” value [3] was 0.072. The “Collagen III” value [3] was 0.069, the EGFR [3] was -0.024 and the M-CSF [3] was -0.078. For the same compound, the MMP-1 [3] was 0.030, the PAI-I [3] was -0.00555 and the Proliferation_72hr [3] was -0.249. The SRB [3] was -0.018, the TIMP-1 [3] was -0.057 and the TIMP-2 [3] was 0.140. For the same compound, the CCL2/MCP-1 [4] was -0.140, the CD54/ICAM-1 [4] was -0.051 and the CD106/VCAM-1 [4] was 0.034. It also gave a CXCL8/IL-8 [4] of -0.084, a CXCL9/MIG [4] of -0.075 and a CXCL10/IP-10 [4] of 0.033. The CXCL11/I-TAC [4] was -0.016, the “Collagen I” value [4] was 0.079 and the “Collagen III” value [4] was 0.097.
